Measurements taken from US8378117B2 (priority 2005, dated 2013).

Legend:
CB1 receptor [1] = target: T1, CB1 receptor (Homo sapiens, UniProt P21554); assay: Modified functional cell-based assay (Beta-Glo luminescence), CB1 receptor
T1 construct: expressed in transfected cells
Experimental: (§1) Additional functional activity studies were performed with minor modifications. Beta galactosidase activity was quantified using the luminescent Beta-Glo Assay System (Promega Corp. Madison, Wis.) and an Orion Microplate Luminometer (Berthold Detection Systems, Oak Ridge, Tenn.). The EC50 values were calculated using GraphPad Prism and a four parameter logistic equation.
(§2) The functional activity EC50 value for compounds tested (shown in Table 8) were obtained from studies in which varying compound concentrations were used. With the exception of Cpd 237 (n=3), one sample for each compound was tested.

CB1 receptor [2] = target: T1, CB1 receptor; assay: cell-based; settings: CB1 Receptor Functional Agonist EC50, SK-N-MC cells, forskolin induced β-galactosidase activity
Method in brief: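 Read-out is forskolin-driven CRE-β-gal reporter activity in stably transfected human-CB1 SK-N-MC cells, normalised to vehicle (100%); agonism lowers, inverse agonism raises signal. Values are EC50 (linear regression, multiple concentrations) or % change at one concentration.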

CB2 receptor [3] = target: T2, CB2 receptor (Homo sapiens, UniProt P34972); assay: Functional cell-based assay, CB2 receptor mediated change in CRE β-gal expression (SK-N-MC cells); settings: CB2 Receptor Functional Agonist EC50, forskolin induced β-galactosidase activity, SK-N-MC cells
T2 construct: expressed in transfected cells
T2 sequence (P34972 whole entry): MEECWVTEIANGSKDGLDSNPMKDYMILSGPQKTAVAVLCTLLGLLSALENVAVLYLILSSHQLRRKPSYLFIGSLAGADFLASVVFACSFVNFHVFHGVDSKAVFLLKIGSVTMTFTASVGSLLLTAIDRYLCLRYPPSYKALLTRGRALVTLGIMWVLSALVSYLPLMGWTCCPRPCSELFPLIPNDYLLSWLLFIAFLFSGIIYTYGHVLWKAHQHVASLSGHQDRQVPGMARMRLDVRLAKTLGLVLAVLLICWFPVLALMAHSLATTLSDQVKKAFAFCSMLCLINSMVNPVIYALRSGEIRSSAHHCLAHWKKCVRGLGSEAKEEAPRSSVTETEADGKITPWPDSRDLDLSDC
From the text: The CB1 and CB2 receptors are G-protein coupled receptors (GPCR), which influence cell function via the Gi-protein. These receptors modulate the activity of intracellular adenylate cyclase, which in turn produces the intracellular signal messenger cyclic-AMP (cAMP).
At baseline, or during non-ligand bound conditions, these receptors are constitutively active and tonically suppress adenylate cyclase activity. The binding of an agonist causes further receptor activation and produces additional suppression of adenylate cyclase activity. The binding of an inverse agonist inhibits the constitutive activity of the receptors and results in an increase in adenylate cyclase activity.
By monitoring intracellular adenylate cyclase activity, the ability of compounds to act as agonists or inverse agonists can be determined.
Test compounds were evaluated in SK-N-MC cells which, using standard transfection procedures, were stably transfected with human cDNA for pcDNA3-CRE β-gal and pcDNA3 CB1 receptor (human) or pcDNA3 CB2 receptor (human). By expressing CRE β-gal, the cells produced β-galactosidase in response to CRE promoter activation by cAMP. Cells expressing CRE β-gal and either the human CB1 or CB2 receptor will produce less β-galactosidase when treated with a CB1/CB2 agonist and will produce more β-galactosidase when treated with a CB1/CB2 inverse agonist.
The cells were grown in 96-well plates under standard cell culture conditions at 37° C. in a 5% CO2 atmosphere and culture media (wherein the media was supplemented with 2 mM L-glutamine, […] sodium pyruvate, 10% FBS (fetal bovine serum) and antibiotics).
For cells expressing CRE β-gal and the CB2 receptor, CB2 agonists reduced β-galactosidase activity in a dose-dependent manner and CB2 inverse agonists increase β-galactosidase activity in a dose-dependent manner.
The change in forskolin induced β-galactosidase activity was determined by setting a vehicle treated cell's activity value at 100% and expressing the β-galactosidase activity measured in a corresponding compound treated cell as a percent of the vehicle treated cell activity.
The EC50 value for functional activity for compounds tested was calculated by linear regression and was obtained from studies in which varying compound concentrations were used.

CB2 receptor [4] = target: T2, CB2 receptor; assay: Modified binding assay, CB2 receptor in CHO cells, [3H]WIN 55212; settings: [3H]WIN 55212 0.8 nM, 120 minutes at 37° C.
Experimental: (§3) Additional receptor binding studies were performed with minor modifications as detailed below.
(§4) The human CB1 and CB2 receptors were stably expressed in CHO cells as described in Rinaldi-Carmona, M., Calandra, B., Shire, D., Bouaboula, M., Oustric, D., Barth, F., Casellas, P., Ferrara, P. and Le Fur, G. (1996) J. PharmacoL Exp. Ther., 278: 871-878 and Munro, S., Thomas, K. L. and Abu-Shaar, M. (1993) Nature, 365: 61-65, respectively. [^3H]CP 55940 (0.5 nM) was used as the radioligand for the CB1 receptor binding assay. [^3H]WIN 55212 (0.8 nM) was used as the radioligand for the CB2 receptor binding assay. Incubation was carried out for 120 minutes at 37° C.
(§5) The specific ligand binding to the receptors is defined as the difference between the total binding and the nonspecific binding determined in the presence of an excess of unlabelled ligand. The results are expressed as a percent of control specific binding ((measured specific binding/control specific binding)×100) obtained in the presence of the test compounds.
(§6) The IC50 values (concentration causing a half-maximal inhibition of control specific binding) were determined by non-linear regression analysis of the competition curves generated with mean replicate values using Hill equation curve fitting (where Y=specific binding, D=minimum specific binding, A=maximum specific binding, C=compound concentration, C50=IC50 and nH=slope factor): (Y=D+[(A−D)/(1+(C/C50)^nH)] CB1 and CB2 Receptor Binding Results
(§7) For compounds tested, an IC50 binding value was obtained from percent inhibition studies in which various test concentrations were used.

CB2 receptor [5] = target: T2, CB2 receptor; assay: Modified functional cell-based assay (Beta-Glo luminescence), CB2 receptor; settings: CB2 EC50 (Receptor Functional Activity), one sample per compound, Cpd 237 n=3
Experimental: as §1, §2

CB2 receptor [6] = target: T2, CB2 receptor; assay: Binding assay for CB2 agonists or inverse agonists (SK-N-MC membranes, [3H]-CP-55,940); settings: for IC50: Cannabinoid CB2 Receptor Binding IC50, calculated by linear regression from percent inhibition at various test concentrations
Method in brief: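 IC50 came from percent-inhibition data over several compound concentrations, fitted by linear regression. Binding used semi-purified membranes of human CB2-transfected SK-N-MC cells, 90 min at 30 °C, pH 7.5 Tris-HCl with MgCl2, EDTA and BSA, then filtration and scintillation counting.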

CB1 receptor [7] = target: T1, CB1 receptor; assay: Modified binding assay, CB1 receptor in CHO cells, [3H]CP 55940; settings: [3H]CP 55940 0.5 nM, 120 minutes at 37° C.
Experimental: as §3, §4, §5, §6, §7

[8] = CB1 EC50 (Receptor Functional Activity), one sample per compound, Cpd 237 n=3

T1 sequence (P21554 whole entry): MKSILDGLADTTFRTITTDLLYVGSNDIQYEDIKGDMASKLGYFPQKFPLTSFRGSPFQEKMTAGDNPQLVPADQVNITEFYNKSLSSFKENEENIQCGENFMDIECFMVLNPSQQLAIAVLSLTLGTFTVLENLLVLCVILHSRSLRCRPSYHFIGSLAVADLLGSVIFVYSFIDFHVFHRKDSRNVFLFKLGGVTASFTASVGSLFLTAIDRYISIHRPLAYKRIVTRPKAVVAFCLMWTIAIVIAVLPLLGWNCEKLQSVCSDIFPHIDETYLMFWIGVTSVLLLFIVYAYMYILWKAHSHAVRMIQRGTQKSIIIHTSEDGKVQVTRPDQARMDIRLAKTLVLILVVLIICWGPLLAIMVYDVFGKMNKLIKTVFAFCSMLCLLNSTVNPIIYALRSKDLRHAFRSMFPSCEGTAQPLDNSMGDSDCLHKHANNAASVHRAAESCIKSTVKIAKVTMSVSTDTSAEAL

SMILES | EC50 (CB1 receptor [1]; [8]) [nM] | EC50 (CB1 receptor [2]) [nM] | EC50 (CB2 receptor [3]) [nM] | IC50 (CB2 receptor [4]) [nM] | EC50 (CB2 receptor [5]) [nM] | IC50 (CB2 receptor [6]) [nM] | IC50 (CB1 receptor [7]) [nM] | EC50 (CB1 receptor [1]; read-out: CB1 EC50 (Receptor Functional Activity), one sample per compound, Cpd 237 n=3) [nM] | CB2 receptor binding percent inhibition (CB2 receptor [6]; test concentration 0.2 μM (footnote 2), 0.2 µM) [%] | inhibition at 0.2 µM (CB2 receptor [6]; test concentration 0.2 μM (footnote 2), read-out: CB2 receptor binding percent inhibition) [%]
O=C(N[C@H](CO)c1ccccc1)c1n[nH]c2c1CCCCC2Cc1cccc(Cl)c1 (single isomer, unassigned) [Cpd 230, (8R*)-8-(3-chloro-benzyl)-1,4,5,6,7,8-hexahydro-cycloheptapyrazole-3-carboxylic acid [(1S)-2-hydroxy-1-phenyl-ethyl]-amide] | > 1000 | 1000 | 2 | 92 | 11 | 40 | 370 | – | – | –
O=C(N[C@H](CO)c1ccccc1)c1n[nH]c2c1CCCCC2Cc1cccc(Cl)c1 (single isomer, unassigned) [Cpd 231, (8S*)-8-(3-chloro-benzyl)-1,4,5,6,7,8-hexahydro-cycloheptapyrazole-3-carboxylic acid [(1S)-2-hydroxy-1-phenyl-ethyl]-amide] | – | > 5000 | 12 | 1800 | 82 | 200 | > 3000 | > 1000 | – | –
C[C@H](NS(=O)(=O)/C=C/c1n[nH]c2c1CCCCC2Cc1cccc(F)c1)c1ccccc1 (single isomer, unassigned) [Cpd 232, (2E)-2-[(8R*)-8-(3-fluoro-benzyl)-1,4,5,6,7,8-hexahydro-cycloheptapyrazol-3-yl]-ethenesulfonic acid [(1S)-1-phenyl-ethyl]-amide] | ~3200 | > 5000 | 9 | – | 150 | 60 | – | – | 81 | –
C[C@H](NS(=O)(=O)/C=C/c1n[nH]c2c1CCCC/C2=C\c1ccc(Cl)cc1)c1ccccc1 [Cpd 237, (2E,8E)-2-[8-(4-chloro-benzylidene)-1,4,5,6,7,8-hexahydro-cycloheptapyrazol-3-yl]-ethenesulfonic acid [(1S)-1-phenyl-ethyl]-amide] | 3600 | 1700 | 9 | 690 | 3200 | 100 | > 3000 | – | – | 64
